Reference: patent US20070197610A1, “Benzisoxazoles” (Janssen Pharmaceutica N.V., priority 2004, published 2007)

Key:
[1] = biological target: T1, D-amino acid oxidase (DAAO; EC 1.4.3.3) (Sus scrofa, UniProt P00371); assay: In vitro inhibition of DAAO using the keto acid method; type: biochemical; conditions: DAAO 20 μg/ml, D-Alanine 15 mM, 10 min at room temperature, pH 8.3, absorbance at 450 nm; read-out: keto acid method pIC50 (converted)
T1 construct: purchased Sigma
Experimental: (§1) D-amino acid oxidase (DAAO; EC 1.4.3.3) catalyzes the oxidation of D-stereo isomers of amino acids.
Two in vitro methods were developed to measure the catalytic activity of DAAO: • 1. The peroxide method: measures the amount of peroxide produced, using an auxiliary enzyme horse radish peroxidase • 2. […]
DAAO (20 μg/ml) is incubated for 10 min at room temperature with the substrate D-Alanine (15 mM) in 0.19 mM pyrophosphatebuffer pH 8.3 containing FAD (11 μg/ml), and bovine liver catalase (EC 1.11.1.6) (4.3 mg/ml) in a total volume of 50 μl. Compounds were added in a 0.5 μl volume to a final DMSO concentration of 1%. The reaction is stopped by adding 25 μl 1 mM […] dinitrophenylhydrazine in 1N HCl, After a second 10 min incubation at room temperature, 175 μl 0.6 N NaOH is added and the formed hydrazone is detected by measuring the absorbance at 450 nm. All products were purchased from Sigma.

[2] = biological target: T1, D-amino acid oxidase (DAAO; EC 1.4.3.3); assay: In vitro inhibition of DAAO using the peroxide method; type: biochemical; conditions: DAAO 2.6 μg/ml, D-Alanine 7.5 mM, 60 minutes at room temperature, absorbance at 492 nm; read-out: H2O2 method pIC50 (converted)
Experimental: as §1
Two in vitro methods were developed to measure the catalytic activity of DAAO: • 1. The peroxide method: measures the amount of peroxide produced, using an auxiliary enzyme horse radish peroxidase • 2. The keto acid method: measures the ax keto acid formed
The general reaction to determine the amount of peroxide produced by catalytic action of DAAO can be described as: [drawing 36]
DAAO (2.6 μg/ml) is incubated for 60 minutes at room temperature with the substrate D-Alanine (7.5 mM) in 0.019 M sodiumpyrophosphate buffer containing FAD(5.5 μg/ml), HRP (200 μg/ml), DHBS (1667 μg/ml) and 4-aminoantipyrine(500 μg/ml) in a total volume of 50 μl. Compounds were added in a 0.5 μl volume to a final DMSO concentration of 1%. The reaction was terminated by addition of 30 μl of 0.5M phosphate buffer pH 5.0. The quinone-imine dye was detected by measuring the absorbance at 492 nm. All products were purchased from Sigma.

T1 sequence (P00371 whole entry): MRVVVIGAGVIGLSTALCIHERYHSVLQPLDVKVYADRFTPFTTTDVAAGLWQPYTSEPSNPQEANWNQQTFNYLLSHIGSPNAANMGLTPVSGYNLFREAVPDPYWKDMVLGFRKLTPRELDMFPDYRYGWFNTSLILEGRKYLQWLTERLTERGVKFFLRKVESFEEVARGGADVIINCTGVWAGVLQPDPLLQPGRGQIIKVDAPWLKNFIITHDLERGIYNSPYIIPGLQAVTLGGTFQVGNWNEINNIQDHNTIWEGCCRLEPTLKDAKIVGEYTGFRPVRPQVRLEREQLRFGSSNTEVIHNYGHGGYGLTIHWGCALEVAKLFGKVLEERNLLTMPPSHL

melting point [°C]	IC50 [1] [nM]	IC50 [2] [nM]	Structure (SMILES)
208	–	–	COc1ccc2c(O)noc2c1
121	–	–	COc1ccc2c(=O)n(C(=O)NC(C)C)oc2c1 [Compound 1]
97 to 100	–	–	O=C(/N=c1/c2ccccc2on1C(=O)c1ccccc1)c1ccccc1 [Compound 10]
–	1000	631	Cc1onc(-c2c(Cl)cccc2Cl)c1C(=O)Oc1noc2ccc(Cl)cc12 [Compound 17]
–	126	31.6	Cc1cc(C(=O)Oc2noc3cc(Cl)ccc23)no1 [Compound 18]
126 to 128	5010	3980	Cc1ccc2onc(OC(=O)c3cc(C)on3)c2c1 [Compound 19]
–	1000	631	Cc1onc(-c2c(Cl)cccc2Cl)c1NC(=O)n1oc2ccc(Cl)cc2c1=O [Compound 21]
–	794	631	CNC(=O)n1oc2ccc(Cl)cc2c1=O [Compound 22]
–	1000	794	CC(C)NC(=O)n1oc2ccc(Cl)cc2c1=O [Compound 23]
–	794	631	CCCNC(=O)n1oc2ccc(Cl)cc2c1=O [Compound 25]
–	2000	3160	Cc1ccc2on(C(=O)NC(C)(C)C)c(=O)c2c1 [Compound 26]
–	200	50.1	CC(C)(C)NC(=O)n1oc2cc(Cl)ccc2c1=O [Compound 27]
–	2000	3980	Cc1ccc2on(C(=O)NC(C)C)c(=O)c2c1 [Compound 28]
–	3980	–	CC(C)NC(=O)n1oc2ccccc2c1=O [Compound 29]
